According to PMC12467487, “An In Vitro Study of Protein S-Glutathionylation by Members of the CLIC Protein Family” (Biomolecules, 2025):

Legend:
Test in all cases: tryptophan fluorescence quenching, glutathionylation of SQLWCLSN, AUC
Type in all cases: biochemical
rCLIC3 = biological target: T1, rCLIC3 (Homo sapiens, UniProt O95833); conditions: 5 mM GSSG, 100 uM peptide, McIlvaine's buffer pH 8, 0.1 uM enzyme; 1 h pre-incubation with 10 uM IAA-94
T1 construct: gene CLIC3; recombinant, soluble form; pET28a(+), E. coli BL21(DE3); His-tag removed by thrombin; SEC; endotoxin removed

rCLIC4 = biological target: T2, rCLIC4 (Homo sapiens, UniProt Q9Y696); conditions: 5 mM GSSG, 100 uM peptide, McIlvaine's buffer pH 7, 0.1 uM enzyme; 1 h pre-incubation with 10 uM IAA-94
T2 construct: gene CLIC4; recombinant, soluble form; pET28a(+), ClearColi BL21(DE3); His-tag removed by thrombin; SEC

rCLIC1 = biological target: T3, rCLIC1 (Homo sapiens, UniProt O00299); conditions: 5 mM GSSG, 100 uM peptide, McIlvaine's buffer pH 7, 0.1 uM enzyme; 1 h pre-incubation with 10 uM IAA-94
T3 construct: gene CLIC1; recombinant, soluble form; pET28a(+), ClearColi BL21(DE3); His-tag removed by thrombin; SEC

T1 sequence (O95833 whole entry): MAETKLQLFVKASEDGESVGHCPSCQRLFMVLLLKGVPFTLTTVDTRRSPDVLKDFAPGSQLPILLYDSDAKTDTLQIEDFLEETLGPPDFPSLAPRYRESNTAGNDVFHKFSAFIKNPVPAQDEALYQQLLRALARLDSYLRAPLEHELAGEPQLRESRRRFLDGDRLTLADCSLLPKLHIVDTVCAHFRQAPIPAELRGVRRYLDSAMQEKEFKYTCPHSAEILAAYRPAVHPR
T2 sequence (Q9Y696 whole entry): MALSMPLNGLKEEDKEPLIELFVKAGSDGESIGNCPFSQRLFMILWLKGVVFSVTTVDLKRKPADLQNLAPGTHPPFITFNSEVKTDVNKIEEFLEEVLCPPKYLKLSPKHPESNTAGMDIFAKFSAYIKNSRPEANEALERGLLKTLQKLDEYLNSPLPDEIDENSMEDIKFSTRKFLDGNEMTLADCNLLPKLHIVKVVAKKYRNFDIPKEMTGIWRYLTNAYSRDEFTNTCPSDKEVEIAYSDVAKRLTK

`CC1(C2CCCC2)Cc2cc(OCC(=O)O)c(Cl)c(Cl)c2C1=O` (stereo not drawn) [IAA-94] was tested, and the “fold reduction of glutathionylation activity at 10 uM” value (rCLIC3) was 0.2 fold, the “fold decrease in glutathionylation activity at 10 uM” value (rCLIC4) was 0.4 fold and the “fold decrease in glutathionylation activity at 10 uM” value (rCLIC1) was 0.7 fold.
